Measurements from ChEMBL document CHEMBL5223065, “Targeting the protease of West Nile virus” (RSC Med Chem, 2021).
*1 amine or outer side, *2 acyl side, *3 side chain or, on linkers, in order; H or OH if unused. Where a SMILES comes first, the peptide text is derived from it. [ ]: non-standard residue; d: D form. X1 = N=C(N)N[C@@H](CCCCN[*:1])C(=O)[*:2]; βAla = NCCC(=O)O

Assays:
Prothrombin = Prothrombin (Homo sapiens, UniProt P00734); test: Inhibition of thrombin (unknown origin) using CH3SO2-dCha-Gly-Arg-pNA as substrate by […] plate reader analysis
Coagulation factor X = Coagulation factor X (Homo sapiens, UniProt P00742); test: Inhibition of factor Xa (unknown origin) using CH3OCO-dCha-Gly-Arg-pNA as substrate by […] plate reader analysis
[1] = Inhibition of Dengue virus 4 NS2B-NS3 protease using Benzoyl-Nle-Lys-Arg-Arg-AMC as substrate preincubated for 1 hrs followed by substrate addition and measured after 10 mins by fluorescence based plate reader analysis; design: species or system dengue virus type 4
West Nile virus [2] = test: Inhibition of West Nile virus EG101 NS2BH-NS3 protease expressed in Escherichia coli Top10 F' cells using Boc-Gly-Lys-Arg-AMC as substrate preincubated with compound for 15 mins followed by substrate addition and measured after 15 mins by fluorescence based assay; conditions: time 30.0 min
[3] = target: Genome polyprotein (West Nile virus) (UniProt P06935); test: Inhibition of West Nile virus NS2B-NS3 protease using Bz-nKRR-AMC as substrate assessed as inhibition constant preincubated for 30 mins followed by substrate addition and measured after 60 mins by fluorescence based microplate reader analysis; conditions: time 90.0 min
Target sequence in this assay (P06935 whole entry): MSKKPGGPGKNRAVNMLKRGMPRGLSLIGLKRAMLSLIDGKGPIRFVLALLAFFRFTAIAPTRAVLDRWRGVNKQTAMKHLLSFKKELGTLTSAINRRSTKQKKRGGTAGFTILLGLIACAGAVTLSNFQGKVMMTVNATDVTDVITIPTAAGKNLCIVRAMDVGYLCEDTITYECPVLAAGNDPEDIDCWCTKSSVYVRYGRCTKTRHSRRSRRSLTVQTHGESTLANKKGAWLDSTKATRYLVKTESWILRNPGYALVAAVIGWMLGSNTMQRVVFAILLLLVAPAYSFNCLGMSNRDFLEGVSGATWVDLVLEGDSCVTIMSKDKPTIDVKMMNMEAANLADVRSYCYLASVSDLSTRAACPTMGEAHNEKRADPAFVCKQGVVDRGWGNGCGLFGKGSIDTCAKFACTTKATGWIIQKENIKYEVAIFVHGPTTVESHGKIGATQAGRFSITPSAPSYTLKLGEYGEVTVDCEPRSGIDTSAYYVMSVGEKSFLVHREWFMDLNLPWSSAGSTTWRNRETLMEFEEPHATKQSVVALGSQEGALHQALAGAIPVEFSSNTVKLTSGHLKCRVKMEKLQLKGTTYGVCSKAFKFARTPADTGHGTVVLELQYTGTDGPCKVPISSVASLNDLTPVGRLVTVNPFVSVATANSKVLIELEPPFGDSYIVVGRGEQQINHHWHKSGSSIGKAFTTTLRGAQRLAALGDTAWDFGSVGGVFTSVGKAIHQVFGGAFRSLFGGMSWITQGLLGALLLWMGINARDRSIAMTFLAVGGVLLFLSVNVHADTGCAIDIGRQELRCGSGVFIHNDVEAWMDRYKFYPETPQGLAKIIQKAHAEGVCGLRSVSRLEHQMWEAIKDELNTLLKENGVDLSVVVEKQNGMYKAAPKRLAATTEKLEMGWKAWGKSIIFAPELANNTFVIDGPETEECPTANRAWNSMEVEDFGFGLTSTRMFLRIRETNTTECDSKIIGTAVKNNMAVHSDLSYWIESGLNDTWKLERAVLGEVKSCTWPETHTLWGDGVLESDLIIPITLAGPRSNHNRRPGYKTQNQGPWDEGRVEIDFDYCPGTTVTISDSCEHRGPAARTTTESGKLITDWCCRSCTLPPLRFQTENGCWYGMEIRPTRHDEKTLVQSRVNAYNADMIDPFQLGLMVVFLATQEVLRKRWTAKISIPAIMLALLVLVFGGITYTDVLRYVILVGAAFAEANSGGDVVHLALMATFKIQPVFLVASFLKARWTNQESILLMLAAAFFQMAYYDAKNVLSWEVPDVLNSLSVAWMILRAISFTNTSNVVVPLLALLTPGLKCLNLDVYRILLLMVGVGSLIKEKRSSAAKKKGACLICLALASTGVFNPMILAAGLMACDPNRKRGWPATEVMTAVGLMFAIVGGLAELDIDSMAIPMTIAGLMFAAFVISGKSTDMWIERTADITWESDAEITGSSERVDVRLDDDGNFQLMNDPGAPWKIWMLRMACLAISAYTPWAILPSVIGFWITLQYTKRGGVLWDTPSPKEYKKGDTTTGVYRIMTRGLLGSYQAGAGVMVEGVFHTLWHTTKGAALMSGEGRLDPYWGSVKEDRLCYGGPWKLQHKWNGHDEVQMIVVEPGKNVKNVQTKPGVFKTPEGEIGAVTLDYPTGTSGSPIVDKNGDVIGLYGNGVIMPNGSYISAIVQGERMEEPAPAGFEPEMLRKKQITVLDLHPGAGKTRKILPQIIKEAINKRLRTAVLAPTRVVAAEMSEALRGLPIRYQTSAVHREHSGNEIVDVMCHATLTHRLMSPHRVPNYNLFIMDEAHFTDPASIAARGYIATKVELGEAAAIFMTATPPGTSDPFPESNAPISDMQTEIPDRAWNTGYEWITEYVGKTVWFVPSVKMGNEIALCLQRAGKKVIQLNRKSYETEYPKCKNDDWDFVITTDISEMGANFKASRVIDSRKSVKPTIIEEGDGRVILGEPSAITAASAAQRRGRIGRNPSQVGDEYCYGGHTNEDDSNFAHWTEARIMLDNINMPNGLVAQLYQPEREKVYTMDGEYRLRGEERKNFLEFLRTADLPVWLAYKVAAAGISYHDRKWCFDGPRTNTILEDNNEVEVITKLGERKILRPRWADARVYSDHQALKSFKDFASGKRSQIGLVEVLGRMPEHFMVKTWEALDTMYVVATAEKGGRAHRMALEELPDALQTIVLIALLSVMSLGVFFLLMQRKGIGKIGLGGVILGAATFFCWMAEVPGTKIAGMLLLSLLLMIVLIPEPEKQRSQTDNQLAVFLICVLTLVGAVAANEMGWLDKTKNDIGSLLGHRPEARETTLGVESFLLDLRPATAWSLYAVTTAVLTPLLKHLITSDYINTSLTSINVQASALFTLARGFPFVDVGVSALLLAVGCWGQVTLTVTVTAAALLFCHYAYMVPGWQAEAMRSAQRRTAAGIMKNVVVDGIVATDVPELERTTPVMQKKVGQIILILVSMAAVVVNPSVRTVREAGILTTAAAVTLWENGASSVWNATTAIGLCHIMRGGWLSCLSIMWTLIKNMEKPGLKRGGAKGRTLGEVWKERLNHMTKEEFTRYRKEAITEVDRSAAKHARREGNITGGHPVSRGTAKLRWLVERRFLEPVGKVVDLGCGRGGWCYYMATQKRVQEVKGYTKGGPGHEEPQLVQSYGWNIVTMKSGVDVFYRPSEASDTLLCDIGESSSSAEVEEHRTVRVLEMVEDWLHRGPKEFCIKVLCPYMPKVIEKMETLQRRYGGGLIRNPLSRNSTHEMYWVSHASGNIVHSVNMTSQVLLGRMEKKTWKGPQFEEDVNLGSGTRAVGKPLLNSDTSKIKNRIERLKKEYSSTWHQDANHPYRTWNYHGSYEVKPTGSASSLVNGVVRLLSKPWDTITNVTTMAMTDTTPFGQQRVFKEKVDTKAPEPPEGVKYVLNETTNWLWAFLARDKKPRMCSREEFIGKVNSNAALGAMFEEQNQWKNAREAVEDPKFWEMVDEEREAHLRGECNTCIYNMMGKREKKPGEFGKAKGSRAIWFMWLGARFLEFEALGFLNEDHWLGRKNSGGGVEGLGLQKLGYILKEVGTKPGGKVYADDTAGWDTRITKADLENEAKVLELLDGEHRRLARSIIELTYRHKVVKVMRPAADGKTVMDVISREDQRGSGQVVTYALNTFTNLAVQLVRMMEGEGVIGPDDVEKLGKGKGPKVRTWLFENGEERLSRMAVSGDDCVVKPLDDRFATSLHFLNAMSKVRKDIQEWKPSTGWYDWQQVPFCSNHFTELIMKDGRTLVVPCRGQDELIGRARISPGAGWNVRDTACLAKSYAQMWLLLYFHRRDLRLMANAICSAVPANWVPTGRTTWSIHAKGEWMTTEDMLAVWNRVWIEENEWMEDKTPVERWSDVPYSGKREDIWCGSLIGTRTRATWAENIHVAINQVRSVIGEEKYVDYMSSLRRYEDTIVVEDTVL

dengue virus type 2 [4] = test: Antiviral activity against DENV2 New Guinea C infected in human A549 cells measured after 48 hrs by plaque reduction assay; format: functional, organism-based; conditions: A549, 48 h
West Nile virus [5] = test: Antiviral activity against West Nile virus NY99 infected in human A549 cells measured after 48 hrs by plaque reduction assay; format: functional, organism-based; conditions: NY99, A549, 48 h
Zika virus [6] = test: Antiviral activity against Zika virus Puerto Rico strain PRVABC59 infected in human A549 cells measured after 48 hrs by plaque reduction assay; format: functional, organism-based; conditions: Puerto Rico strain PRVABC59, A549, 48 h
West Nile virus [7] = test: Antiviral activity against West Nile virus NY003356V2 infected in human A549 cells measured after 48 hrs by plaque reduction assay; format: functional, organism-based; conditions: NY003356V2, A549, 48 h
[8] = Cytotoxicity against human A549 cells incubated for 42 hrs by MTT assay; format: toxicity, cell-based
[9] = target: Genome polyprotein (West Nile virus) (UniProt P06935); test: Uncompetitive inhibition of recombinant West Nile virus NS2B-NS3 protease using Pyr-RTKR-AMC as substrate assessed as inhibition constant preincubated for 15 mins followed by substrate addition
Target sequence in this assay (P06935 1371-1501 limits assumed): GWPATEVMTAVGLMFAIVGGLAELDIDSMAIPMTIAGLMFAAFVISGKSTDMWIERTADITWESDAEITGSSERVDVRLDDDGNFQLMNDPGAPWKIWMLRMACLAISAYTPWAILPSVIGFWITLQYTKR
Target sequence in this assay (P06935 1502-2120 limits assumed): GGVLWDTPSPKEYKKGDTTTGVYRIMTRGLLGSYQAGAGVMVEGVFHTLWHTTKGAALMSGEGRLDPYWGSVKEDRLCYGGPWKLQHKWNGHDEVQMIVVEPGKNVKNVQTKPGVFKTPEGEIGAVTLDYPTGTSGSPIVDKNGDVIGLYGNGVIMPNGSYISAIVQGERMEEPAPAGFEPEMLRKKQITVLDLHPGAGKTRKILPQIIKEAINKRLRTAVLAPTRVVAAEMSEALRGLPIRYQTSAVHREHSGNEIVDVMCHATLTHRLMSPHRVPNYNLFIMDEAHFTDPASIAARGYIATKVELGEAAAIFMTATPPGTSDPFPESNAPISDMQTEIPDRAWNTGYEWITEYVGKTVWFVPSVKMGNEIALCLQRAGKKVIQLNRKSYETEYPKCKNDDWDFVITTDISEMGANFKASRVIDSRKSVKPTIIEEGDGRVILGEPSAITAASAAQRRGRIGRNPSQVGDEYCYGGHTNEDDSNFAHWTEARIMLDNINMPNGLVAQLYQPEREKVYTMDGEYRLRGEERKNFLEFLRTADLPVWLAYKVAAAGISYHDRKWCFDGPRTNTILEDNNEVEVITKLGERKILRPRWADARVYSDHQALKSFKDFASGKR

[10] = Cytotoxicity against golden hamster BHK-21 cells incubated for 24 hrs by CCK-8 assay; format: toxicity, cell-based, Mesocricetus auratus
dengue virus type 2 [11] = test: Antiviral activity against DENV2 infected in golden hamster BHK-21 cells preincubated with virus for 18 hrs followed by compound addition and measured after 24 hrs by plaque reduction assay; format: functional, organism-based
[12] = Cytotoxicity against African green monkey Vero cells incubated for 24 hrs by MTT assay; format: toxicity, cell-based; conditions: chlorocebus sabaeus
dengue virus type 2 [13] = test: Antiviral activity against DENV2 infected in African green monkey Vero cells assessed as inhibition of viral infection by virucidal assay; format: functional, organism-based
dengue virus type 1 = test: Antiviral activity against DENV1 infected in African green monkey Vero cells assessed as inhibition of viral infection by virucidal assay; format: functional, organism-based
dengue virus type 3 = test: Antiviral activity against DENV3 infected in African green monkey Vero cells assessed as inhibition of viral infection by virucidal assay; format: functional, organism-based
dengue virus type 4 = test: Antiviral activity against DENV4 infected in African green monkey Vero cells assessed as inhibition of viral infection by virucidal assay; format: functional, organism-based
[14] = Inhibition of DENV3 NS2B (50 to 95 residues)-NS3 (1 to 182 residues) protease expressed in Escherichia coli BL21-rosetta cells using Bz-Nle-Lys-Lys-Arg-AMC as substrate preincubated for 10 mins followed by substrate addition and measured every 30 secs; design: species or system dengue virus type 3
West Nile virus [15] = test: Antiviral activity against West Nile virus New York 99 infected in golden hamster BHK-21 cells co-expressing renilla luciferase assessed as inhibition of viral […] replication incubated for 24 hrs; format: functional, organism-based; conditions: New York 99, BHK-21, 24 h
[16] = Cytotoxicity against golden hamster BHK-21 cells incubated for 24 hrs by ATP-lite assay; format: toxicity, cell-based, Mesocricetus auratus
Zika virus [17] = test: Antiviral activity against Zika virus Puerto Rico strain PRVABC59 infected in human A549 cells measured after 42 hrs incubation under dark conditions by plaque reduction assay; format: functional, organism-based; conditions: Puerto Rico strain PRVABC59, A549, 42 h
dengue virus type 2 [18] = test: Antiviral activity against DENV2 infected in human A549 cells measured after 42 hrs by plaque reduction assay; format: functional, organism-based; conditions: A549, 42 h
West Nile virus [19] = test: Antiviral activity against West Nile virus infected in human A549 cells measured after 42 hrs by plaque reduction assay; format: functional, organism-based

Sequence of Coagulation factor X (P00742 41-179 limits assumed): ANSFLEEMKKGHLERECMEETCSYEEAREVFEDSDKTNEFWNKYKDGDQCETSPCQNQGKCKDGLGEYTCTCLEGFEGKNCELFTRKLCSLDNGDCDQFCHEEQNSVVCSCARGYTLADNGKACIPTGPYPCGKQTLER
Sequence of Coagulation factor X (P00742 235-488 limits assumed): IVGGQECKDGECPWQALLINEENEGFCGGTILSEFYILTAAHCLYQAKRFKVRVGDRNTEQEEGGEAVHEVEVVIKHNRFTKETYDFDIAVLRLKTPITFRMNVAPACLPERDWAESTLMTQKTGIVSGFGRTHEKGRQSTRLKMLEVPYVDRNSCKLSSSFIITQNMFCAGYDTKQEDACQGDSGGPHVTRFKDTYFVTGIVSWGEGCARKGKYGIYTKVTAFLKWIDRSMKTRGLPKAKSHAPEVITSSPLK

N=C(N)N[C@H]1CC[C@H](CNC(=O)[C@H](CCCCN)NC(=O)[C@H](CCCCN)NC(=O)Cc2ccc(Cl)c(Cl)c2)CC1
Ki (Prothrombin): > 500000 nM
Ki (Coagulation factor X): > 200000 nM

N=C(N)N[C@H]1CCCCNC(=O)[C@H](CCCCN)NC(=O)[C@H](CCCCN)NC(=O)CCNC(=O)CNC(=O)CNC1=O (cyclo(GG[βAla]KK[X1]))
Ki [1]: 160 nM

Oc1ccccc1C(Nc1nccs1)c1ccc2cccnc2c1O (stereo not drawn)
K (West Nile virus [2]): 3.4 µM

N=C(N)Nc1ccc(OC(=O)c2ccc(NC(=N)N)cc2)cc1
K [3]: 4.6 µM

O=C1OC2(c3ccccc31)c1cc(I)c(O)c(I)c1Oc1c2cc(I)c(O)c1I [ERYTHROSINE]
EC50 (dengue virus type 2 [4]): 1200 nM
EC50 (West Nile virus [5]): 660 nM
EC50 (Zika virus [6]): 620 nM

O=C1C=C/C(=N\Nc2ccc([N+](=O)[O-])cc2Cl)C=C1C(=O)Nc1cccc(Cl)c1
EC50 (West Nile virus [7]): 1270 nM
CC50 at 42 h [8]: 48800 nM
EC50 (dengue virus type 2 [4]): 810 nM
EC50 (Zika virus [6]): 1000 nM

CCc1ccc(NC(=O)CSc2nc3ccc(NC(=O)CSc4nnc(-c5ccccc5)[nH]4)cc3s2)cc1
K [9]: 2.8 µM

Cc1ccc(C(=O)c2cc(O)c(O)c([N+](=O)[O-])c2)cc1 [TOLCAPONE]
CC50 at 24 h [10]: 29200 nM
EC50 (dengue virus type 2 [11]): 2000 nM

C=CCc1ccc(OCc2cn(Cc3ccccc3Br)nn2)c(OC)c1
CC50 at 24 h [12]: > 300000 nM
EC50 (dengue virus type 2 [13]): 14000 nM
EC50 (dengue virus type 1): 14000 nM
EC50 (dengue virus type 3): 14000 nM
EC50 (dengue virus type 4): 14000 nM

NCc1ccc(-c2ncc(OCC3CCNCC3)nc2-c2ccc(-c3cn[nH]c3)cc2)cc1
IC50 [14]: 200 nM

Clc1cc(OCc2nnc3sc(Cc4ccccc4)nn23)c(Cl)cc1OCc1nnc2sc(Cc3ccccc3)nn12
EC50 (West Nile virus [15]): 17000 nM
CC50 at 24 h [16]: > 200000 nM

Oc1cccc(-c2c3nc(c(-c4cccc(O)c4)c4ccc([nH]4)c(-c4cccc(O)c4)c4nc(c(-c5cccc(O)c5)c5ccc2[nH]5)CC4)C=C3)c1 [TEMOPORFIN]
EC50 (Zika virus [17]): 22 nM
EC50 (dengue virus type 2 [18]): 20 nM
CC50 at 42 h [8]: 40700 nM
EC50 (West Nile virus [19]; A549, 42 h): 10 nM
EC90 (West Nile virus [19]; A549, time 42 hrs): 30 nM
